Values after ≈ are worked out from the molar mass of the structure shown. “Also recorded” adds a separate entry of the source. Like-named read-outs stand apart in the source and are kept apart here.
Legend:
Mtb H37Rv = details: cited from earlier work; for MIC90 / MIC (H37Rv): previously reported
Mycobacterium smegmatis = tested on: Mycobacterium smegmatis; design: method as in earlier work; details: ref 33 (Van Puyvelde et al.); cited from earlier work
[1] = tested on: Mtb H37Ra strain (ATCC 25177); test: Broth microdilution growth inhibition assay against Mtb H37Ra; format: cell-based, Mycobacterium tuberculosis; details: for antitubercular activity (in words): Mtb H37Ra; for MIC90: 90% inhibition of Mtb H37Ra growth
[2] = Resazurin reduction cytotoxicity assay, THP-1 macrophages; details: human
[3] = Resazurin reduction cytotoxicity assay, HepG2; details: human, HepG2 hepatocellular carcinoma cells
in vitro = details: human, CC50, BEAS-2B, 24 h exposure, resazurin; mean ± SD (n = 3)
[4] = Resazurin reduction cytotoxicity assay, IMR90; details: human, IMR-90 fetal lung fibroblasts
[5] = Resazurin reduction cytotoxicity assay, Raw264.7; details: mouse
HepG2 cells = test: Resazurin reduction cytotoxicity assay, HepG2; details: HepG2, 24 h exposure, resazurin; mean ± SD (n = 3)
Mtb H37Ra = details: cited from earlier work
[6] = Mycobacterium tuberculosis, pure commercial compounds, 50% inhibition of Mtb H37Ra growth, mean ± SD, read-out: MIC50
[7] = Mycobacterium tuberculosis, pure commercial compounds, mean ± SD, read-out: MIC90
[8] = pure commercial compounds, 50% inhibition of Mtb H37Ra growth, mean ± SD, read-out: MIC50
[9] = pure commercial compounds, 50% inhibition of Mtb H37Ra growth, mean ± SD
[10] = pure commercial compounds, mean ± SD

For `CC(C)C1=C(O)C(=O)C2=C(C=C[C@H]3C(C)(C)CCC[C@]23C)C1=O` [6,7-dehydroroyleanone], which MIC90 (Mtb H37Rv; Mtb H37Rv, ref 10 (Baldin et al.)) is on record?
The MIC90 was 31.2 µg/mL (≈ 99.2 µM).

With `C=C[C@]1(C)C=C2[C@H](O)C[C@@H]3C(C)(CCC[C@@]3(C)CO)[C@H]2CC1` (stereo partly drawn) [8(14),15-sandaracopimaradiene-7α,18diol] as the compound, how does the MIC90 (Mycobacterium smegmatis) read?
Its MIC90 is 12 µg/mL (≈ 39.4 µM).

What does the source list for `C=C1CC[C@H]2O[C@]2(C)CC[C@@H]2[C@@H]1CC2(C)C` [Caryophyllene oxide]?
antitubercular activity (in words) [1]: very low to no activity; also recorded: inactive; MIC50 [1, 6]: > 200 µM; MIC90 [1, 7]: > 200 µM; MIC50 [1, 8]: > 200 µM

With `COc1ccc(-c2oc3cc(OC)c(OC)c(O)c3c(=O)c2OC)cc1O` [Casticin] as the compound, how does the MIC50 [1, 6] read?
The MIC50 was > 200 µM.

And the MIC90 [1, 7]?
The MIC90 was > 200 µM.

And the MIC50 [1, 8]?
The MIC50 was >200 µM.

For `COc1cc2oc(-c3ccc(O)c(O)c3)cc(=O)c2c(O)c1OC` [Cirsiliol], which CC50 at 24 h [2] is on record?
Its CC50 at 24 h is 11.2 ± 2.7 µM.

What about the CC50 at 24 h [3] of the same compound?
The CC50 at 24 h was > 250 µM.

And the CC50 (in vitro)?
Its CC50 is > 250 µM.

And the CC50 at 24 h [4]?
The CC50 at 24 h was 108 ± 44.1 µM.

What about the MIC50 [1, 6] of the same compound?
Its MIC50 is 80.3 µM (≈ 26.5 µg/mL).

What about the MIC90 [1, 7] of the same compound?
The MIC90 was > 200 µM.

What about the MIC50 [1, 9] of the same compound?
The MIC50 was 80.3 ± 43 µM (≈ 26.5 µg/mL).

What about the MIC90 ([1]; pure commercial compounds, mean ± SD, read-out: MIC90) of the same compound?
The MIC90 was >200 µM.

What about the CC50 at 24 h ([5]; Raw264.7 macrophage cells) of the same compound?
The CC50 at 24 h was 71.2 ± 44.1 µM.

For `CC[C@@H](CO)NCCN[C@@H](CC)CO` [Ethambutol, reference compound], which MIC50 [1, 6] is on record?
The MIC50 was 10.3 ± 4 µM (≈ 2.1 µg/mL).

What about the MIC90 [1, 7] of the same compound?
The MIC90 was 17.3 ± 0.96 µM (≈ 3.53 µg/mL).

What does the source list for `COc1c(O)cc2oc(-c3ccc(O)cc3)cc(=O)c2c1O` [Hispidulin]?
CC50 at 24 h [2]: 21.1 ± 14.5 µM; CC50 (in vitro): > 250 µM; MIC50 [1, 6]: 54.8 µM (≈ 16.5 µg/mL); MIC90 [1, 7]: 162 µM (≈ 48.6 µg/mL); MIC50 [1, 9]: 54.8 ± 25.6 µM (≈ 16.5 µg/mL); MIC90 [1, 10]: 162 ± 75 µM (≈ 48.6 µg/mL); CC50 at 24 h [5]: 227 ± 36.7 µM

Which MIC50 [1, 9] does the source give for `NC[C@H]1O[C@H](O[C@H]2[C@H](O)[C@@H](O[C@H]3O[C@H](CO)[C@@H](O)[C@H](N)[C@H]3O)[C@H](N)C[C@@H]2N)[C@H](O)[C@@H](O)[C@@H]1O` [Kanamycin, reference compound] here?
The MIC50 was 3.3 ± 0.40 µM (≈ 1.6 µg/mL).

What about the MIC90 [1, 10] of the same compound?
Its MIC90 is 7.5 ± 1.7 µM (≈ 3.63 µg/mL).

For `CC1(C)C[C@H](O)C[C@@]2(C)OC(=O)C=C12` [Loliolide], which “antitubercular activity (in words)” value [1] is on record?
Its value is “inactive”.

What about the MIC50 [1, 6] of the same compound?
Its MIC50 is > 200 µM.

And the MIC90 [1, 7]?
Its MIC90 is > 200 µM.

And the MIC50 [1, 8]?
The MIC50 was > 200 µM.

Which “MIC90 / MIC (H37Rv)” value (Mtb H37Rv; Mtb H37Rv) does the source give for `O=c1cc(-c2ccc(O)c(O)c2)oc2cc(O)cc(O)c12` [Luteolin] here?
Its value is 78.12 µg/mL (≈ 273 µM).

What does the source list for `COc1cc(C2c3c(cc(OC)c(O)c3OC)CC(CO)C2CO)cc(OC)c1O` (stereo not drawn) [Lyoniresinol]?
antitubercular activity (in words) [1]: inactive; MIC50 [1, 6]: > 200 µM; MIC90 [1, 7]: > 200 µM; MIC50 [1, 8]: > 200 µM

With `C=Cc1c(C)c2cc3nc(c4c5[nH]c(cc6nc(cc1[nH]2)C(C)=C6CC)c(C)c5C(=O)[C@@H]4C(=O)OC)[C@@H](CCC(=O)O)[C@@H]3C` [Pheophorbide A] as the compound, how does the CC50 at 24 h [2] read?
The CC50 at 24 h was 1.4 ± 0.8 µM.

What about the CC50 (HepG2 cells) of the same compound?
The CC50 was “no cytotoxicity”.

What about the CC50 at 24 h [3] of the same compound?
Its CC50 at 24 h is > 84.3 µM.

What about the CC50 (in vitro) of the same compound?
The CC50 was ~4.9 µM.

And the CC50 at 24 h [4]?
The CC50 at 24 h was ~11.5 µM.

What about the MIC50 [1, 6] of the same compound?
The MIC50 was 10.5 ± 5 µM (≈ 6.22 µg/mL).

What about the MIC90 [1, 7] of the same compound?
Its MIC90 is 17 ± 7.6 µM (≈ 10.1 µg/mL).

What about the MIC50 [1, 8] of the same compound?
Its MIC50 is 10.5 µM (≈ 6.22 µg/mL).

And the CC50 at 24 h ([5]; Raw264.7 macrophage cells)?
Its CC50 at 24 h is 20.9 ± 6.5 µM.

With `O=c1c(O)c(-c2ccc(O)c(O)c2)oc2cc(O)cc(O)c12` [Quercetin] as the compound, how does the MIC90 (Mtb H37Rv; H37Rv) read?
Its MIC90 is 6.25 µg/mL (≈ 20.7 µM).

What does the source list for `C/C1=C\CC(C)(C)/C=C/C(=O)/C(C)=C/CC1` [Zerumbone]?
CC50 at 24 h [2]: 51.6 ± 31.6 µM; CC50 at 24 h [3]: > 250 µM; CC50 (in vitro): 149 ± 43.2 µM; CC50 at 24 h [4]: 79.8 ± 48.7 µM; antitubercular activity (in words) [1]: very low to no activity; also recorded: inactive; MIC50 ([1]; Mycobacterium tuberculosis): > 200 µM; MIC90 [1, 7]: > 200 µM; MIC50 [1, 8]: >200 µM; CC50 at 24 h ([5]; Raw264.7 macrophage cells): 44.5 ± 3.5 µM

With `COc1ccc(-c2coc3cc(O)c(OC)cc3c2=O)cc1` [afrormosin] as the compound, how does the MIC90 (Mtb H37Ra) read?
Its MIC90 is 50 µg/mL (≈ 168 µM).

With `O=c1cc(-c2ccc(O)cc2)oc2cc(O)cc(O)c12` [apigenin] as the compound, how does the “MIC90 / MIC (H37Rv)” value (Mtb H37Rv; Mtb H37Rv) read?
Its value is 70 µg/mL (≈ 259 µM).

With `COc1ccc(-c2coc3cc(O)ccc3c2=O)cc1` [formononetin] as the compound, how does the MIC90 (Mtb H37Ra) read?
The MIC90 was 25 µg/mL (≈ 93.2 µM).

For `O=C1CC(c2ccc(O)cc2)Oc2cc(O)ccc21` (stereo not drawn) [liquitirigenin], which “MIC (H37Ra)” value (Mtb H37Ra; previously reported MIC90) is on record?
The value was 25 µg/mL (≈ 97.6 µM).

Which results are given for `CC(C)=CCC[C@](C)(O)[C@@H]1CC=C(C)CC1` [α-bisabolol]?
CC50 at 24 h ([2]; THP-1-derived macrophages (PMA-differentiated)): > 250 µM; CC50 at 24 h [3]: > 250 µM; CC50 (in vitro): > 250 µM; CC50 at 24 h [4]: > 250 µM; MIC50 ([1]; Mycobacterium tuberculosis): > 200 µM; MIC90 [1, 7]: > 200 µM; MIC50 [1, 8]: >200 µM; CC50 at 24 h ([5]; Raw264.7 macrophage cells): 174 ± 26.2 µM
